ChEMBL document CHEMBL1201862, “PubChem BioAssay data set” (2004)
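96-well plates; 48 h exposure; 5 concentrations. Endpoints by linear interpolation between flanking doses. Not reached: highest tested concentration assigned. The concentration for 50% growth inhibition is given as GI50.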 The source made the active and inactive calls. No stated cut-off is given here; in the data, active = GI50 up to about 1.1 µM and inactive = higher.

Legend:
Assay in all cases: inhibition of tumour cell growth, NCI panel, 48 h
[1] = tested on: Malme-3M
[2] = tested on: HOP-92
[3] = tested on: SNB-75
[4] = tested on: NCI-H226
[5] = tested on: OVCAR-4
[6] = tested on: OVCAR-3
[7] = tested on: COLO 205
[8] = tested on: HL-60
[9] = tested on: A549
[10] = tested on: MCF7
[11] = tested on: T47D
[12] = tested on: SK-MEL-28
[13] = tested on: OVCAR-8
[14] = tested on: NCI/ADR-RES
[15] = tested on: SK-OV-3
[16] = tested on: SK-MEL-2
[17] = tested on: SF-295
[18] = tested on: HOP-62
[19] = tested on: MOLT-4
[20] = tested on: SW-620

| SMILES | GI50 [1] | GI50 [2] | GI50 [3] | GI50 [4] | GI50 [5] | GI50 [6] | GI50 [7] | GI50 [8] | GI50 [9] | GI50 [10] | GI50 [11] | GI50 [12] | GI50 [13] | GI50 [14] | GI50 [15] | GI50 [16] | GI50 [17] | GI50 [18] | GI50 [19] | GI50 [20] |
| --- | --- | --- | --- | --- | --- | --- | --- | --- | --- | --- | --- | --- | --- | --- | --- | --- | --- | --- | --- | --- |
| Nc1ccccc1C(=O)NNC(=O)c1ccccc1N | > 100 µM (inactive) | > 100 µM (inactive) | 35.5 µM (inactive) | > 100 µM (inactive) | > 100 µM (inactive) | > 100 µM (inactive) | > 100 µM (inactive) | > 100 µM (inactive) | > 100 µM (inactive) | > 100 µM (inactive) | > 100 µM (inactive) | > 100 µM (inactive) | > 100 µM (inactive) | > 100 µM (inactive) | > 100 µM (inactive) | > 100 µM (inactive) | > 100 µM (inactive) | > 100 µM (inactive) | > 100 µM (inactive) | > 100 µM (inactive) |
| NS(=O)(=O)c1ccc(/N=N/c2ncccc2O)cc1 | > 100 µM (inactive) | > 100 µM (inactive) | > 100 µM (inactive) | > 100 µM (inactive) | 57.7 µM (inactive) | 33.7 µM (inactive) | > 100 µM (inactive) | 41.1 µM (inactive) | > 100 µM (inactive) | 57.9 µM (inactive) | > 100 µM (inactive) | > 100 µM (inactive) | 79.6 µM (inactive) | > 100 µM (inactive) | > 100 µM (inactive) | > 100 µM (inactive) | > 100 µM (inactive) | > 100 µM (inactive) | 22.6 µM (inactive) | 57.3 µM (inactive) |
| CC1C(=O)C(C)C(c2ccccc2)N(N=O)C1c1ccccc1 (stereo not given) | > 318 µM (inactive) | 24.9 µM (inactive) | 34 µM (inactive) | > 69.5 µM (inactive) | > 65.9 µM (inactive) | 197 µM (inactive) | > 553 µM (inactive) | > 724 µM (inactive) | 207 µM (inactive) | > 100 µM (inactive) | 60.8 µM (inactive) | > 409 µM (inactive) | > 91.6 µM (inactive) | 179 µM (inactive) | 37.2 µM (inactive) | 224 µM (inactive) | 48.8 µM (inactive) | 41.8 µM (inactive) | > 695 µM (inactive) | > 100 µM (inactive) |
| O=C1N[C@@H](c2c[nH]c3ccc(Br)cc23)C(=O)N[C@H]1c1c[nH]c2ccc(Br)cc12 | 14.4 µM (inactive) | 3.71 µM (inactive) | 1.55 µM (inactive) | 10.8 µM (inactive) | 5.73 µM (inactive) | 9.23 µM (inactive) | 7.21 µM (inactive) | 6.9 µM (inactive) | 13.8 µM (inactive) | 12.6 µM (inactive) | 10.8 µM (inactive) | 15.1 µM (inactive) | 11.4 µM (inactive) | 31.4 µM (inactive) | 15.9 µM (inactive) | 13.6 µM (inactive) | 11.9 µM (inactive) | 12 µM (inactive) | 3.53 µM (inactive) | 10.9 µM (inactive) |
| CCCCCCCC/C=C\CCCCCCC/C=C1\C[C@](/C=C/C(=O)OC)(CO)OC1=O | 1.4 µM (inactive) | 2.94 µM (inactive) | 1.92 µM (inactive) | 2.61 µM (inactive) | 3.2 µM (inactive) | 5.32 µM (inactive) | 2.02 µM (inactive) | 2.15 µM (inactive) | 4.3 µM (inactive) | 3.28 µM (inactive) | 3.27 µM (inactive) | 1.6 µM (inactive) | 2.59 µM (inactive) | 3.47 µM (inactive) | 6.3 µM (inactive) | 8.41 µM (inactive) | 2.23 µM (inactive) | 1.86 µM (inactive) | 0.611 µM (active) | 1.78 µM (inactive) |
| NC(=O)c1ccc(NCC2=CC(=O)C=CC2=O)cc1 | 19.5 µM (inactive) | 16.5 µM (inactive) | 21 µM (inactive) | > 100 µM (inactive) | 19.8 µM (inactive) | 16.3 µM (inactive) | 19.1 µM (inactive) | 11.5 µM (inactive) | > 100 µM (inactive) | 23 µM (inactive) | 28.1 µM (inactive) | 20.5 µM (inactive) | 20.4 µM (inactive) | 25.6 µM (inactive) | > 100 µM (inactive) | 20.4 µM (inactive) | > 100 µM (inactive) | > 100 µM (inactive) | 18.8 µM (inactive) | 21.4 µM (inactive) |
| Cc1cc(C)c2c(=O)n(CN3CCC(C#N)(c4ccccc4)CC3)sc2n1 | 22.5 µM (inactive) | 88.1 µM (inactive) | 37.7 µM (inactive) | > 100 µM (inactive) | 30.3 µM (inactive) | 83 µM (inactive) | 30.8 µM (inactive) | 18.5 µM (inactive) | 97.9 µM (inactive) | 62.5 µM (inactive) | > 100 µM (inactive) | 42.5 µM (inactive) | 28.6 µM (inactive) | 51.1 µM (inactive) | > 100 µM (inactive) | > 100 µM (inactive) | > 100 µM (inactive) | 44.1 µM (inactive) | 49.4 µM (inactive) | 24.4 µM (inactive) |
| CCC1(CC)SCc2nc3ccccc3n21 | 22.4 µM (inactive) | 18 µM (inactive) | 12.6 µM (inactive) | 33.4 µM (inactive) | 20.6 µM (inactive) | 32.1 µM (inactive) | 19.8 µM (inactive) | 26 µM (inactive) | 35.9 µM (inactive) | 30.2 µM (inactive) | 49.7 µM (inactive) | 37.2 µM (inactive) | 38.4 µM (inactive) | 25.6 µM (inactive) | 38.5 µM (inactive) | 27.5 µM (inactive) | 36.5 µM (inactive) | 37.1 µM (inactive) | 22.8 µM (inactive) | 58.6 µM (inactive) |
| CC(=O)N(CN1C(=O)CCC1C(=O)O)c1ccccc1 (stereo not given) | 29.8 µM (inactive) | > 63.1 µM (inactive) | > 56.5 µM (inactive) | > 52.7 µM (inactive) | > 100 µM (inactive) | > 54.5 µM (inactive) | > 58.6 µM (inactive) | > 55.7 µM (inactive) | > 55.1 µM (inactive) | > 56.8 µM (inactive) | > 57.3 µM (inactive) | > 100 µM (inactive) | > 52.4 µM (inactive) | 29.9 µM (inactive) | > 56.1 µM (inactive) | > 54.7 µM (inactive) | > 52.6 µM (inactive) | > 55.6 µM (inactive) | > 54.2 µM (inactive) | > 100 µM (inactive) |
| COC(=O)NC(Cc1ccccc1)NC(=O)OC(C)(C)C (stereo not given) | > 100 µM (inactive) | > 100 µM (inactive) | > 100 µM (inactive) | > 100 µM (inactive) | > 100 µM (inactive) | > 100 µM (inactive) | > 100 µM (inactive) | > 100 µM (inactive) | > 100 µM (inactive) | > 100 µM (inactive) | > 100 µM (inactive) | > 100 µM (inactive) | > 100 µM (inactive) | > 100 µM (inactive) | > 100 µM (inactive) | > 100 µM (inactive) | > 100 µM (inactive) | > 100 µM (inactive) | > 100 µM (inactive) | > 100 µM (inactive) |
| C=C(C)C(O)C(O)c1c(OC)ccc2ccc(=O)oc12 (stereo not given) | > 100 µM (inactive) | > 100 µM (inactive) | > 100 µM (inactive) | > 100 µM (inactive) | > 100 µM (inactive) | > 100 µM (inactive) | > 100 µM (inactive) | > 100 µM (inactive) | > 100 µM (inactive) | > 100 µM (inactive) | > 100 µM (inactive) | > 100 µM (inactive) | > 100 µM (inactive) | > 100 µM (inactive) | > 100 µM (inactive) | > 100 µM (inactive) | > 100 µM (inactive) | > 100 µM (inactive) | > 100 µM (inactive) | > 100 µM (inactive) |
| CC(CN(C)C)C(O)(c1ccccc1)c1ccccc1 (stereo not given) | > 100 µM (inactive) | > 100 µM (inactive) | > 100 µM (inactive) | > 100 µM (inactive) | > 100 µM (inactive) | > 100 µM (inactive) | > 100 µM (inactive) | > 100 µM (inactive) | > 100 µM (inactive) | > 100 µM (inactive) | > 100 µM (inactive) | > 100 µM (inactive) | > 100 µM (inactive) | > 100 µM (inactive) | > 100 µM (inactive) | > 100 µM (inactive) | > 100 µM (inactive) | > 100 µM (inactive) | > 100 µM (inactive) | > 100 µM (inactive) |
| N#CC(C#N)=C(N)/C(C#N)=C/c1ccc(O)c(O)c1 | > 100 µM (inactive) | 43.6 µM (inactive) | 74.8 µM (inactive) | 46.3 µM (inactive) | 44.8 µM (inactive) | 37.5 µM (inactive) | > 65.2 µM (inactive) | 22.6 µM (inactive) | > 100 µM (inactive) | 75.2 µM (inactive) | 53.7 µM (inactive) | > 100 µM (inactive) | 40.5 µM (inactive) | 41.5 µM (inactive) | > 100 µM (inactive) | > 100 µM (inactive) | > 20.4 µM (inactive) | 15.5 µM (inactive) | 47.9 µM (inactive) | 50.2 µM (inactive) |
| COc1ccc(-c2cc(=O)c3c(OC)c(OC)c(OC)c(OC)c3o2)cc1 [TANGERETIN] | 84.1 µM (inactive) | 20.2 µM (inactive) | 46.8 µM (inactive) | 64.7 µM (inactive) | 46.1 µM (inactive) | 42.4 µM (inactive) | 55.7 µM (inactive) | 34.4 µM (inactive) | 51.6 µM (inactive) | > 100 µM (inactive) | 17 µM (inactive) | > 100 µM (inactive) | 41.2 µM (inactive) | 23.7 µM (inactive) | 99.8 µM (inactive) | 90.6 µM (inactive) | 55.3 µM (inactive) | 82.6 µM (inactive) | 64.6 µM (inactive) | 67.8 µM (inactive) |
